Measurements reported in the supplement of paper PMC11451515.

Test system: NOMO1
Assay: cell viability relative to DMSO control; higher = less cytotoxic
Conditions: 48 h
Summary of the method: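 Viability, reported as a per-plate percentage of DMSO wells with cell-free wells as background, came from CellTiter-Glo One luminescence. Reading took place after 48 h at 37°C. Before that, NOMO1 or SEM (500 cells/well) or P12-Ichikawa (1000 cells/well) leukemia cells, adapted for at least four passages in each medium, were seeded in 1536-well plates (5 μl) and pin-dosed with library compounds in DMSO, 47 μM to 0.79 nM over 11 threefold points.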

[1] = HPLM + 10% dialyzed FBS, 0.000781 µM
[2] = HPLM + 10% dialyzed FBS, 0.00234 µM
[3] = HPLM + 10% dialyzed FBS, 0.00702 µM
[4] = HPLM + 10% dialyzed FBS, 0.0211 µM
[5] = HPLM + 10% dialyzed FBS, 0.0632 µM
[6] = HPLM + 10% dialyzed FBS, 0.19 µM
[7] = HPLM + 10% dialyzed FBS, 0.569 µM
[8] = HPLM + 10% dialyzed FBS, 1.71 µM
[9] = HPLM + 10% dialyzed FBS, 5.12 µM
[10] = HPLM + 10% dialyzed FBS, 15.4 µM
[11] = HPLM + 10% dialyzed FBS, 46.1 µM
[12] = RPMI 5 mM glucose + 10% FBS, 0.000781 µM
[13] = RPMI 5 mM glucose + 10% FBS, 0.00234 µM
[14] = RPMI 5 mM glucose + 10% FBS, 0.00702 µM
[15] = RPMI 5 mM glucose + 10% FBS, 0.0211 µM
[16] = RPMI 5 mM glucose + 10% FBS, 0.0632 µM
[17] = RPMI 5 mM glucose + 10% FBS, 0.19 µM
[18] = RPMI 5 mM glucose + 10% FBS, 0.569 µM
[19] = RPMI 5 mM glucose + 10% FBS, 1.71 µM
[20] = RPMI 5 mM glucose + 10% FBS, 5.12 µM
[21] = RPMI 5 mM glucose + 10% FBS, 15.4 µM
[22] = RPMI 5 mM glucose + 10% FBS, 46.1 µM
[23] = RPMI 5 mM glucose + 10% dialyzed FBS, 0.000781 µM
[24] = RPMI 5 mM glucose + 10% dialyzed FBS, 0.00234 µM
[25] = RPMI 5 mM glucose + 10% dialyzed FBS, 0.00702 µM
[26] = RPMI 5 mM glucose + 10% dialyzed FBS, 0.0211 µM
[27] = RPMI 5 mM glucose + 10% dialyzed FBS, 0.0632 µM
[28] = RPMI 5 mM glucose + 10% dialyzed FBS, 0.19 µM
[29] = RPMI 5 mM glucose + 10% dialyzed FBS, 0.569 µM
[30] = RPMI 5 mM glucose + 10% dialyzed FBS, 1.71 µM
[31] = RPMI 5 mM glucose + 10% dialyzed FBS, 5.12 µM
[32] = RPMI 5 mM glucose + 10% dialyzed FBS, 15.4 µM
[33] = RPMI 5 mM glucose + 10% dialyzed FBS, 46.1 µM

SMILES | cell viability [1] [%] | cell viability [2] [%] | cell viability [3] [%] | cell viability [4] [%] | cell viability [5] [%] | cell viability [6] [%] | cell viability [7] [%] | cell viability [8] [%] | cell viability [9] [%] | cell viability [10] [%] | cell viability [11] [%] | cell viability [12] [%] | cell viability [13] [%] | cell viability [14] [%] | cell viability [15] [%] | cell viability [16] [%] | cell viability [17] [%] | cell viability [18] [%] | cell viability [19] [%] | cell viability [20] [%] | cell viability [21] [%] | cell viability [22] [%] | cell viability [23] [%] | cell viability [24] [%] | cell viability [25] [%] | cell viability [26] [%] | cell viability [27] [%] | cell viability [28] [%] | cell viability [29] [%] | cell viability [30] [%] | cell viability [31] [%] | cell viability [32] [%] | cell viability [33] [%]
CN1/C=C(\N=C(NC2=CC=C(C=C2)C(=O)N3CCOCC3)/C1=O)/C4=C(C)C(=CC=C4)NC(=O)C5=CC=C(C=C5)C(C)(C)C | 91.6 | 114 | 102 | 85.2 | 103 | 111 | 112 | 110 | 97.2 | 94.2 | 70.7 | 91.4 | 84.4 | 99.5 | 89.5 | 98.3 | 88.7 | 100 | 84.9 | 80.6 | 88.1 | 85.1 | 97.6 | 92.9 | 96.2 | 95.9 | 106 | 100 | 107 | 94.6 | 93.1 | 78.4 | 77.2
O=C(NCCCNc1nc(Nc2cccc(NC(=O)N3CCCC3)c2)ncc1I)c1cccs1 | 81.8 | 91 | 88.4 | 79.3 | 80.9 | 72 | 91.5 | 51.5 | 67.9 | 84.3 | 78.7 | 80.4 | 89.7 | 78 | 81.5 | 76.1 | 76.9 | 80 | 65.9 | 77 | 83.1 | 89.9 | 89.1 | 89.2 | 89.3 | 75 | 84.6 | 84.4 | 80 | 59.1 | 83.1 | 75.7 | 76.9
O=[S+]([O-])(CCSSCC[S+](=O)([O-])[O][Na])[O][Na] | 110 | 104 | 132 | 124 | 120 | 112 | 133 | 125 | 135 | 129 | 141 | 107 | 115 | 125 | 119 | 127 | 123 | 125 | 129 | 147 | 130 | 142 | 107 | 112 | 126 | 130 | 121 | 122 | 125 | 139 | 134 | 144 | 127
O=C(Nc1ccc([N+](=O)[O-])cc1Cl)c1cc(Cl)ccc1O | 103 | 94.9 | 99.2 | 107 | 98.7 | 120 | 111 | 57.4 | 30 | 40.3 | 31.7 | 85.1 | 86.4 | 84.1 | 93 | 94.5 | 89.1 | 82.7 | 62.3 | 32.5 | 72.8 | 48.7 | 88.8 | 94.3 | 91.3 | 90.9 | 103 | 96.4 | 101 | 50.8 | 34.6 | 50.9 | 47.9
COCCCOc1ccnc(C[S+]([O-])c2nc3ccccc3[nH]2)c1C (stereo not drawn) | 92.5 | 116 | 113 | 123 | 123 | 122 | 116 | 127 | 130 | 119 | 117 | 126 | 118 | 110 | 109 | 131 | 124 | 105 | 126 | 115 | 118 | 124 | 108 | 114 | 119 | 120 | 133 | 119 | 119 | 121 | 120 | 115 | 129
O=C(C1CC1)N1CC[C@@H](Cn2c(-c3ccc(-c4ccc5occc5c4)cc3)nc3cnccc32)C1 | 93.7 | 128 | 117 | 112 | 122 | 135 | 121 | 134 | 117 | 123 | 82.6 | 117 | 101 | 104 | 102 | 111 | 104 | 106 | 115 | 119 | 109 | 113 | 101 | 115 | 107 | 129 | 120 | 112 | 119 | 114 | 109 | 110 | 100
OC(CCN1CCCCC1)(C2CC\3CC2\C=C3)C4=CC=CC=C4 (stereo not drawn) | 125 | 119 | 125 | 123 | 140 | 133 | 138 | 144 | 136 | 117 | 94.2 | – | – | – | – | – | – | – | – | – | – | – | – | – | – | – | – | – | – | – | – | – | –
Cc1cc(-c2nnc3n2CCCCC3)c(C)n1-c1ccccc1 | 116 | 122 | 136 | 131 | 121 | 125 | 148 | 132 | 117 | 120 | 108 | 112 | 112 | 109 | 122 | 115 | 120 | 118 | 114 | 117 | 116 | 110 | 115 | 120 | 110 | 114 | 124 | 113 | 116 | 121 | 111 | 122 | 120
CCNC(=O)Nc1ccc(-c2nc3c(c(N4CCOC[C@@H]4C)n2)CCN(C2COC2)C3)cc1 | 117 | 130 | 102 | 119 | 101 | 95.9 | 88.6 | 66.5 | 57.6 | 44.5 | 40.5 | 109 | 102 | 105 | 107 | 105 | 94.6 | 98.9 | 84.6 | 67.3 | 52.8 | 46.6 | 108 | 115 | 119 | 102 | 98.4 | 97.2 | 101 | 66.7 | 66.5 | 52.8 | 45.4
O=C(O)CSCC(=O)NC1CCSC1=O (stereo not drawn) | 122 | 112 | 105 | 95.1 | 118 | 119 | 107 | 117 | 106 | 112 | 122 | 105 | 105 | 111 | 99.8 | 110 | 116 | 114 | 102 | 108 | 105 | 104 | 104 | 95.7 | 114 | 104 | 109 | 113 | 108 | 118 | 105 | 100 | 102
